Measured values taken from patent US8410053B2, “Methods for treating autoimmune disorders, and reagents related thereto” (Trustees of Tufts College, priority 2001, dated 2013).
One block for each compound: values may come before it.

Columns and labels:
DP-IV = DP-IV (Homo sapiens, UniProt P27487); test: Inhibition / affinity for DP-IV; assay type: biochemical
DPIV = biological target: T1, DPIV (Rattus norvegicus, UniProt P14740); test: DPIV assays on serum samples from rats; assay type: in vivo; conditions: rat serum 1 hour after treatment; Ala-Pro-paranitroanalide substrate, pH 8
T1 construct: from tissue; host or cells: rat serum
T1 sequence (P14740 38-767 limits assumed): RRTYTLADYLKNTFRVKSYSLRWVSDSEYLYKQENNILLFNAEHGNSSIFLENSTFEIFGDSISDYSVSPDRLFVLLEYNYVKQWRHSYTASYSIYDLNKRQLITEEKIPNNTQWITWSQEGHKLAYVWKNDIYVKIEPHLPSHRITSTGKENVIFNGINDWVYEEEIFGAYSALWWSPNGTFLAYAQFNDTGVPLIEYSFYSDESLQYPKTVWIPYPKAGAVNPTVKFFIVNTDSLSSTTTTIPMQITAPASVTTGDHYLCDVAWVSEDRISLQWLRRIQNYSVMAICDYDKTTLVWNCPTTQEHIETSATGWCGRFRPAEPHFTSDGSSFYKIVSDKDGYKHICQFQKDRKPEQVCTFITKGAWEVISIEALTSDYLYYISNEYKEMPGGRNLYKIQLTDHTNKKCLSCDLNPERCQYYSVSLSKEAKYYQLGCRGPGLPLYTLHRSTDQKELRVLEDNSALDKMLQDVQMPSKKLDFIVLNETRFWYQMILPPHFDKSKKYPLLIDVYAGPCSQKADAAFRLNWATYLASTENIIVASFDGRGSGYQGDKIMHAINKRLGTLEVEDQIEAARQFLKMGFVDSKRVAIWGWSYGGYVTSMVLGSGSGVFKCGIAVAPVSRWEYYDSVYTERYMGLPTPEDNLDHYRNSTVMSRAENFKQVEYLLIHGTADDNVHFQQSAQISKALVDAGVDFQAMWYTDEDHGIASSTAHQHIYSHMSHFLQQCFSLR
Procedure: Four rats were used in this experiment: two females (#3 and #9) and two males (#10 and #11). Blood and plasma samples were collected from rats 1 hour after being treated with Cyclohexylglycine-boroAla. The collected serum samples were evaluated for DPPIV activity of Cyclohexylglycine-boroAla as follows: • 1. 2 mg of Ala-Pro-paranitroanalide (substrate) was dissolved in 20 ml 0.1 M HEPES pH 8, 0.14 M NaCl (buffer). • 2. Serum samples were diluted into substrate solution in the wells of a microtiter plate. For each sample, 10 uL of serum was diluted into 150 μL of substrate. • 3. A reading of the A410 in each well was recorded immediately after the dilution of serum into substrate, and again after approximately 1 hour. The time of data acquisition for each reading is recorded in the data file by the microplate reader software.
The rate of absorbance change was obtained by subtracting the first reading from the second and dividing by the reaction time to give DeltaA410/hr. The DPIV activity was plotted in units of DeltaA410 hr^−1μ^−1.

[1] = In vivo regulation of glucose metabolism
NOD mice = test: Incidence of diabetes in NOD mice upon treatment with DPIV inhibitors; assay type: in vivo
Procedure: The experiment was started on 8-10 week old NOD mice. The mice were kept under VAF/SPF conditions and fed everyday with either Val-boro-Pro (0.034 mg/kg) or Cyclohexyl-boro-Ala (0.34 mg/kg) for 60 days and then observed for the development of spontaneous diabetes. The mice were tested for the excretion of sugar in urine and considered positive for diabetes when sugar was detected in the urine.

[2] = in vivo, cited from earlier work
[3] = chronic (>5 days) treatment, alone

Chain of DP-IV (P27487 whole entry): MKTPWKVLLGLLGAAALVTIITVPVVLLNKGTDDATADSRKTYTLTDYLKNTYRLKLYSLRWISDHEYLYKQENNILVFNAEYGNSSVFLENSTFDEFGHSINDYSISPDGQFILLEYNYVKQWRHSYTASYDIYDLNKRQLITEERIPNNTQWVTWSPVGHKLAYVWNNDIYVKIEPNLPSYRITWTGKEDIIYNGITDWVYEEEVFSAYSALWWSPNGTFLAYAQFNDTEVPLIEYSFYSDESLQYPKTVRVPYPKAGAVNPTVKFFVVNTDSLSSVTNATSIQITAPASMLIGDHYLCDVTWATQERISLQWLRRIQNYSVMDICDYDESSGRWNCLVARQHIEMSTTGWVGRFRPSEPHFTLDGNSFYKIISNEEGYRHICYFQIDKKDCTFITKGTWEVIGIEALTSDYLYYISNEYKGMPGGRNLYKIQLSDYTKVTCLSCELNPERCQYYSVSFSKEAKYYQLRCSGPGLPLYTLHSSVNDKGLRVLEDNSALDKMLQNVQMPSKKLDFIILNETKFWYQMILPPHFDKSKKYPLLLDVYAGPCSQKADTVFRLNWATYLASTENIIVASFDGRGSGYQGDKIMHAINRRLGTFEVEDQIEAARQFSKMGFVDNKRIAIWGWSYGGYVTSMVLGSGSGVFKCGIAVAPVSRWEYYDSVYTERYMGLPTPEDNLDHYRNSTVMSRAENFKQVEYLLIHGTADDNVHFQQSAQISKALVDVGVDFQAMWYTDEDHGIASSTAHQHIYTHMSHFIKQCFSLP

- affinity for DP-IV (DP-IV): no affinity
Compound: CC(NC(=O)OC(C)(C)C)C(=O)N1CCCC1B(O)O (stereo not drawn) [Boc-blocked Ala-boroPro, Boc-Ala-boroPro]

- DPIV enzyme activity in serum (DPIV): significantly decreased
Compound: CC(NC(=O)C(N)C1CCCCC1)B(O)O (stereo not drawn) [Cyclohexylglycine-boroAla]

Compound: O=C(C1CCCN1)N1CCCC1B(O)O (stereo not drawn) [Pro-boro-Pro]
- fasting blood sugars [1, 3]: lowers
- glycemic excursion to oral glucose challenge [1, 3]: lowers
- response to a subtherapeutic dose of GLP-1 ([1]; single injection): potentiate the response
- glucose control ([1]; single injection, alone): alone sufficient to improve glucose control

Compound: CC(C)[C@H](N)C(=O)N1CCC[C@H]1B(O)O [Val-boro-Pro]
- recovery of mice that showed signs of diabetes (NOD mice; 0.034 mg/kg fed every day for 60 days): some of the mice that showed signs of diabetes got better and recovered
- incidence of Diabetes (NOD mice; 0.034 mg/kg fed every day for 60 days, end of the experiment): low incidence of Diabetes
- general health compared to the other groups (NOD mice; end of the experiment): generally good health

Compound: L-Ala-L-boroPro-pinacol
- extent of DP-IV inhibition, silica gel fractions compared (DP-IV; early fraction vs later fractions at equal concentrations): inhibits DP-IV to a greater extent than later fractions

Compound: glucagon-like peptide-1 [GLP-1]
- degradation ([2]; iv): extensively degraded
- degradation without inhibitor ([2]; sc): rapidly degraded in a time-dependent manner
